Source: article PMC10794144, “A novel antibiotic class targeting the lipopolysaccharide transporter” (Nature, 2024)
Values after ≈ are worked out from the molar mass of the structure shown. Read-outs that look alike come from different tables or passages of the source.

Tested on: A. baumannii
Test: microbe, parasite or virus in culture
Conditions: Acinetobacter baumannii, 100%
In short: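 Values come from CLSI-guided (M07, M100) broth microdilution in CAMHB. Endpoint: lowest concentration halting growth, judged by naked eye or by OD600 plateau.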

SMILES: C[C@@H](O)[C@H]1C(=O)N2C(C(=O)O)=C(S[C@@H]3CN[C@H](C(=O)N(C)C)C3)[C@H](C)[C@H]12 [meropenem, reference compound]
- MIC (read-out: MIC 100%, ROB08702, Study LGC284879): 8 µg/mL (≈ 20.9 µM)
- MIC (read-out: MIC 100%, ROB08702, Study LGC285582): 32 µg/mL (≈ 83.4 µM)
- MIC (read-out: MIC 100%, ROB08702, Study LGC286210): 32 µg/mL (≈ 83.4 µM)
- MIC (read-out: MIC 100%, ROB08702, Study LGC293598): 32 µg/mL (≈ 83.4 µM)
- MIC (read-out: MIC 100%, ROB08702, Study LGC294355): 16 µg/mL (≈ 41.7 µM)
- MIC (read-out: MIC 100%, ROB08702, Study LGC295147): 16 µg/mL (≈ 41.7 µM)
- MIC (read-out: MIC 100%, ROB08702, Study LGC296813): 16 µg/mL (≈ 41.7 µM)
- MIC (read-out: MIC 100%, ROB08702, Study LGC299544): 32 µg/mL (≈ 83.4 µM)
- MIC (read-out: MIC 100%, ROB08702, Study LGC301026): 16 µg/mL (≈ 41.7 µM)
- MIC (read-out: MIC 100%, ROB08702, Study LGC308175): 32 µg/mL (≈ 83.4 µM)
- MIC (read-out: MIC 100%, ROB08702, Study ROC003): 16 µg/mL (≈ 41.7 µM)
- MIC (read-out: MIC 100%, ROB08702, Study ROC004): 32 µg/mL (≈ 83.4 µM)
- MIC (read-out: MIC 100%, ROB08702, Study ROC005): 32 µg/mL (≈ 83.4 µM)
- MIC (read-out: MIC 100%, ROB08702, Study ROC006): 64 µg/mL (≈ 167 µM)
- MIC (read-out: MIC 100%, ROB08702, Study ROC007): 32 µg/mL (≈ 83.4 µM)
- MIC (read-out: MIC 100%, ROB08702, Study ROC008): 16 µg/mL (≈ 41.7 µM)
- MIC (read-out: MIC 100%, ROB08702, Study ROC009): 16 µg/mL (≈ 41.7 µM)
- MIC (read-out: MIC 100%, ROB08702, Study ROC010): 32 µg/mL (≈ 83.4 µM)
- MIC (read-out: MIC 100%, ROB08702, Study ROC012): 32 µg/mL (≈ 83.4 µM)
- MIC (read-out: MIC 100%, ROB08702, Study ROC013): 32 µg/mL (≈ 83.4 µM)
- MIC (read-out: MIC 100%, ROB08703, Study LGC277937): 64 µg/mL (≈ 167 µM)
- MIC (read-out: MIC 100%, ROB08703, Study LGC279800): > 64 µg/mL
- MIC (read-out: MIC 100%, ROB08703, Study LGC281440): 64 µg/mL (≈ 167 µM)
- MIC (read-out: MIC 100%, ROB08703, Study LGC282160): 64 µg/mL (≈ 167 µM)
- MIC (read-out: MIC 100%, ROB08703, Study LGC282623): 64 µg/mL (≈ 167 µM)
- MIC (read-out: MIC 100%, ROB08703, Study LGC283932): > 64 µg/mL
- MIC (read-out: MIC 100%, ROB08703, Study LGC284200): 64 µg/mL (≈ 167 µM)
- MIC (read-out: MIC 100%, ROB08703, Study LGC284879): > 64 µg/mL
- MIC (read-out: MIC 100%, ROB08703, Study LGC285582): > 64 µg/mL
- MIC (read-out: MIC 100%, ROB08703, Study LGC286210): 64 µg/mL (≈ 167 µM)
- MIC (read-out: MIC 100%, ROB08703, Study LGC293598): > 64 µg/mL
- MIC (read-out: MIC 100%, ROB08703, Study LGC294355): 64 µg/mL (≈ 167 µM)
- MIC (read-out: MIC 100%, ROB08703, Study LGC295147): 64 µg/mL (≈ 167 µM)
- MIC (read-out: MIC 100%, ROB08703, Study LGC296813): 64 µg/mL (≈ 167 µM)
- MIC (read-out: MIC 100%, ROB08703, Study LGC299544): > 64 µg/mL
- MIC (read-out: MIC 100%, ROB08703, Study LGC301026): 64 µg/mL (≈ 167 µM)
- MIC (read-out: MIC 100%, ROB08703, Study LGC308175): 64 µg/mL (≈ 167 µM)
- MIC (read-out: MIC 100%, ROB08703, Study ROC003): 64 µg/mL (≈ 167 µM)
- MIC (read-out: MIC 100%, ROB08703, Study ROC004): 64 µg/mL (≈ 167 µM)
- MIC (read-out: MIC 100%, ROB08703, Study ROC005): > 64 µg/mL
- MIC (read-out: MIC 100%, ROB08703, Study ROC006): 64 µg/mL (≈ 167 µM)
- MIC (read-out: MIC 100%, ROB08703, Study ROC007): > 64 µg/mL
- MIC (read-out: MIC 100%, ROB08703, Study ROC008): 64 µg/mL (≈ 167 µM)
- MIC (read-out: MIC 100%, ROB08703, Study ROC009): 64 µg/mL (≈ 167 µM)
- MIC (read-out: MIC 100%, ROB08703, Study ROC010): 64 µg/mL (≈ 167 µM)
- MIC (read-out: MIC 100%, ROB08703, Study ROC012): 64 µg/mL (≈ 167 µM)
- MIC (read-out: MIC 100%, ROB08703, Study ROC013): > 64 µg/mL
- MIC (read-out: MIC 100%, ROB08704, Study LGC277937): 64 µg/mL (≈ 167 µM)
- MIC (read-out: MIC 100%, ROB08704, Study LGC279800): 64 µg/mL (≈ 167 µM)
- MIC (read-out: MIC 100%, ROB08704, Study LGC281440): 32 µg/mL (≈ 83.4 µM)
- MIC (read-out: MIC 100%, ROB08704, Study LGC282160): 32 µg/mL (≈ 83.4 µM)
- MIC (read-out: MIC 100%, ROB08704, Study LGC282623): 64 µg/mL (≈ 167 µM)
- MIC (read-out: MIC 100%, ROB08704, Study LGC283932): 32 µg/mL (≈ 83.4 µM)
- MIC (read-out: MIC 100%, ROB08704, Study LGC284200): 32 µg/mL (≈ 83.4 µM)
- MIC (read-out: MIC 100%, ROB08704, Study LGC284879): 64 µg/mL (≈ 167 µM)
- MIC (read-out: MIC 100%, ROB08704, Study LGC285582): 32 µg/mL (≈ 83.4 µM)
- MIC (read-out: MIC 100%, ROB08704, Study LGC286210): 64 µg/mL (≈ 167 µM)
- MIC (read-out: MIC 100%, ROB08704, Study LGC293598): 32 µg/mL (≈ 83.4 µM)
- MIC (read-out: MIC 100%, ROB08704, Study LGC294355): 64 µg/mL (≈ 167 µM)
- MIC (read-out: MIC 100%, ROB08704, Study LGC295147): 64 µg/mL (≈ 167 µM)
- MIC (read-out: MIC 100%, ROB08704, Study LGC296813): 32 µg/mL (≈ 83.4 µM)
- MIC (read-out: MIC 100%, ROB08704, Study LGC299544): 32 µg/mL (≈ 83.4 µM)
- MIC (read-out: MIC 100%, ROB08704, Study LGC301026): 32 µg/mL (≈ 83.4 µM)
- MIC (read-out: MIC 100%, ROB08704, Study LGC308175): 64 µg/mL (≈ 167 µM)
- MIC (read-out: MIC 100%, ROB08704, Study ROC003): 64 µg/mL (≈ 167 µM)
- MIC (read-out: MIC 100%, ROB08704, Study ROC004): 64 µg/mL (≈ 167 µM)
- MIC (read-out: MIC 100%, ROB08704, Study ROC005): 64 µg/mL (≈ 167 µM)
- MIC (read-out: MIC 100%, ROB08704, Study ROC006): 64 µg/mL (≈ 167 µM)
- MIC (read-out: MIC 100%, ROB08704, Study ROC007): 64 µg/mL (≈ 167 µM)
- MIC (read-out: MIC 100%, ROB08704, Study ROC008): 64 µg/mL (≈ 167 µM)
- MIC (read-out: MIC 100%, ROB08704, Study ROC009): 32 µg/mL (≈ 83.4 µM)
- MIC (read-out: MIC 100%, ROB08704, Study ROC010): 64 µg/mL (≈ 167 µM)
- MIC (read-out: MIC 100%, ROB08704, Study ROC012): 32 µg/mL (≈ 83.4 µM)
- MIC (read-out: MIC 100%, ROB08704, Study ROC013): 64 µg/mL (≈ 167 µM)
- MIC (read-out: MIC 100%, ROB08705, Study LGC277937): 64 µg/mL (≈ 167 µM)
- MIC (read-out: MIC 100%, ROB08705, Study LGC279800): 16 µg/mL (≈ 41.7 µM)
- MIC (read-out: MIC 100%, ROB08705, Study LGC281440): 32 µg/mL (≈ 83.4 µM)
- MIC (read-out: MIC 100%, ROB08705, Study LGC282160): 32 µg/mL (≈ 83.4 µM)
- MIC (read-out: MIC 100%, ROB08705, Study LGC282623): 32 µg/mL (≈ 83.4 µM)
- MIC (read-out: MIC 100%, ROB08705, Study LGC283932): 32 µg/mL (≈ 83.4 µM)
- MIC (read-out: MIC 100%, ROB08705, Study LGC284200): 32 µg/mL (≈ 83.4 µM)
- MIC (read-out: MIC 100%, ROB08705, Study LGC284879): 32 µg/mL (≈ 83.4 µM)
- MIC (read-out: MIC 100%, ROB08705, Study LGC285582): 32 µg/mL (≈ 83.4 µM)
- MIC (read-out: MIC 100%, ROB08705, Study LGC286210): 32 µg/mL (≈ 83.4 µM)
- MIC (read-out: MIC 100%, ROB08705, Study LGC293598): 32 µg/mL (≈ 83.4 µM)
- MIC (read-out: MIC 100%, ROB08705, Study LGC294355): 32 µg/mL (≈ 83.4 µM)
